# Measurements from patent US20120308554A1, “VEGF-D/VEGFR2/3-MEDIATED REGULATION OF DENDRITES” (UNIVERSITAT HEIDELBERG, priority 2011, published 2012).
# Experiments:
# [1] = tested on: VEGFD; experiment: Immunoblot analysis of VEGFD expression in hippocampal neurons; type: cell-based, mice; conditions: hippocampal neurons infected with rAAV
# Excerpt: C: Immunoblot analysis of VEGFD expression in uninfected hippocampal neurons and in hippocampal neurons infected with the indicated rAAVs. Tubulin was used for loading control. Neurons infected with rAAV-emptymC, rAAV-shVEGFD and rAAV-shSCR were detected by DsRed immunostaining (see above).
# Mouse monoclonal antibody to tubulin (Sigma); mouse monoclonal NeuN antibody (Chemicon); mouse monoclonal anti-phospho-p38 MAP kinase antibody (BD); rabbit polyclonal antibodies to the HA tag, anti-VEGFD antibodies, anti-VEGFR3 (Santa Cruz); rabbit polyclonal antibody to phosphor-CREB (Upstate-Millipore); rabbit polyclonal antibody to phosphor-CaMKII (Promega); rabbit polyclonal antibodies to phosphor-MSK1, phosphor-ATF2, phosphor-ERK, phosphor-Akt, phosphor-MKK4, phosphor-JNK, phosphor-p70, phosphor-GSKα/β (Cell Signaling). Rabbit polyclonal antibodies to DsRed (Clontech). AlexaFluor 488-, AlexaFluor 594-, and AlexaFluor 633-labled secondary antibodies were from Molecular Probes (Eugene, Oreg., USA).
# [2] = tested on: cultured hippocampal neurons; experiment: Whole-cell patch clamp recordings of cultured hippocampal neurons; type: cell-based, mice
# Excerpt: Whole-cell patch clamp recordings were made at room temperature from cultured hippocampal neurons plated on coverslips secured with a platinum ring in a recording chamber (Open access chamber-1, Science Products GmbH, Hofheim, Germany) mounted on a fixed-stage upright microscope (BX51WI, Olympus, Hamburg, Germany). Differential interference contrast optics, infrared illumination and a CCD camera (PCO, Visitron Systems, Puchheim, Germany) connected to a contrast enhancement unit (Argus, Hamamatsu, Herrsching am Ammersee, Germany) were used to view neurons on a video monitor. Recordings were made with a Multiclamp 700A amplifier, digitized through a Digidata 1322A A/D converter and acquired using pClamp software (Molecular Devices, CA, USA). All membrane potentials have been corrected for the calculated junction potential of −11 mV (JPCalc program by Dr. Peter H. Barry). mEPSCs and whole-cell AMPA (10 μM, 6 ml/min, Biotrend) responses were recorded as known in the art except for the solutions and that a holding potential of −71 mV was used and both TTX (1 μM, Biotrend, Cologne, Germany) and gabazine (5 μM, Biotrend) were included in the ACSF. TTX was applied before gabazine to prevent the induction of action potential bursting. Access (range: 7-18 MU) and membrane resistance (see Table 1) were monitored before and after mEPSC recordings and data was rejected if changes greater than 20% occurred.
# Patch electrodes (3-4 MU) were made from borosilicate glass (1.5 mm, WPI, Sarasota, Fla., USA) and filled with intracellular solution (containing in mM: KCH3SO4, 145; NaCl, 8; HEPES, 10; K2-phosphocreatine, 10; Mgt-ATP, 4; Na3-GTP, 0.3; pH 7.35 with KOH). The extracellular solution was an artificial cerebrospinal fluid (ACSF, in mM: NaCl, 125; KCl, 3.5; MgCl2, 1.3; NaH2PO4, 1.2; CaCl2, 2.4; glucose, 25; NaHCO3, 26; gassed with 95% O2 and 5% CO2).
# [3] = tested on: C57BL/6 mice; experiment: Morris water maze; type: in vivo
# Experimental: (§1) rAAVs were delivered by stereotaxic injection into the right dorsal hippocampus of 2 months old male C57BL/6 mice. For the Golgi staining-based morphometric analysis, viral particles were unilaterally injected over a period of 20 min at the following coordinates relative to Bregma: anteroposterior, −2.1 mm; mediolateral, −1.4 mm; dorsoventral, −1.4 to −1.8 mm from the skull surface. For behavior experiments mice were injected bilaterally.
# (§2) The behavioral experiments started three weeks after stereotaxic delivery of rAAVs. Mice were habituated to the experimental room and handled once a day for three consecutive days before testing started. Two different sets of mice were used for Morris water maze and contextual fear conditioning experiments. At the end of the experiments, virus infection was assessed.
# Mice were first tested in the hidden-platform version and next in the visible-platform version of the water maze. The water maze consisted of a circular pool (120 cm diameter) filled with opaque water (water was made opaque with non-toxic white paint). The platform (10 cm diameter) was submerged 1 cm below the water level. On the first day of the hidden-platform version, mice were habituated to the water and the platform for two 60 seconds trials. In each habituation trial, mice were allowed to swim for 30 seconds and then placed on the platform for another 30 seconds. During the acquisition phase, mice were placed four times a day into a pool with a submerged platform located in a fixed position (approximately 5 minutes inter-trial interval) for four days. […] On the fifth day, mice were given a 60 second probe trial, for which the platform was not in the pool. This was followed by four more days of training. A second probe trial was given on the tenth day. In the visible-platform version, mice were trained to find the platform using a proximal visible cue (red ball placed 10 cm above the platform). […] The path of the mouse was recorded using a video tracking system (ANY-Maze, Stoelting, Ireland).
# [4] = tested on: C57BL/6 mice; experiment: Contextual fear conditioning; type: in vivo; conditions: versus rAAV-shSCR
# Experimental: as §1, §2
# On the training day, mice were placed into the conditioning chamber (23×23×35 cm; TSE, Bad Homburg, Germany) and received a 2 second, 0.5 mA scrambled foot shock 148 seconds after placement into the chamber. Mice were removed from the chamber 30 seconds after the shock. During testing, mice received one 5 minute exposure to the same context in the absence of foot shock 24 hours after conditioning. Freezing, defined as absence of movement except for respiration, was scored continuously during training and testing sessions.
substance,measurement,setting,value
"shVEGFD: shRNA targeting mouse VEGFD mRNA (GGGCTTCAGGAGCGAACAT; SEQ ID NO: 1), expressed from rAAV vector or plasmid with U6 promoter",VEGFD protein expression (immunoblot),[1],blocked VEGFD protein expression
same,AMPA response amplitudes,[2]; bath applied AMPA 10 μM,smaller
same,AP induc thresh (current injection required to induce an action potential),[2]; infected neurons,162 ± 14 pA
same,AP thresh (membrane potential at which action potentials initiate),[2]; infected neurons,−46.5 ± 1.1 mV
same,Cm (membrane capacitance),[2]; infected neurons,68.3 ± 3.3 pF
same,Rm (membrane resistance),[2]; infected neurons,316 ± 19 MΩ
same,Vrest (resting membrane potential),[2]; infected neurons,−82.9 ± 1.9 mV
same,mEPSC τ decay,[2]; infected neurons,4.14 ± 0.15 ms
same,mEPSC τ rise,[2]; infected neurons,2.91 ± 0.10 ms
same,AP induc thresh (current injection required to induce an action potential),[2]; transfected neurons,149 ± 14 pA
same,AP thresh (membrane potential at which action potentials initiate),[2]; transfected neurons,−45.6 ± 1.6 mV
same,Cm (membrane capacitance),[2]; transfected neurons,59.7 ± 3.8 pF
same,Rm (membrane resistance),[2]; transfected neurons,352 ± 29 MΩ
same,Vrest (resting membrane potential),[2]; transfected neurons,−79.7 ± 2.0 mV
same,mEPSC τ decay,[2]; transfected neurons,3.82 ± 0.26 ms
same,mEPSC τ rise,[2]; transfected neurons,2.82 ± 0.23 ms
same,"mEPSC inter-event intervals (IEIs, 1/frequency)",[2]; versus respective shSCR expressing controls,longer mEPSC inter-event intervals
same,Swimming speed,"[3]; hidden-platform acquisition, versus rAAV-shSCR",not different between the two groups
same,"time to find hidden platform (escape latency), effect of treatment","[3]; hidden-platform version, versus rAAV-shSCR",no effect of treatment was observed
same,time spent in quadrants during probe trial,"[3]; probe trial, 60 sec",spent similar amounts of time in the different quadrants
same,basal exploratory activity and reaction to shock during training,[4],not different between the two groups
same,freezing during the 24-hour test session,[4],significantly lower levels of freezing
